Series [1] relates to T. cruzi Tulahuen trypomastigotes. The series can be described thus: T. cruzi trypomastigote assay (Cell Titer-Glo viability, ATP luminescence). The class given is cell-based, Trypanosoma cruzi. Conditions: for Trypomastigotes pIC50 48 hours: 48 hours incubation; for Trypomastigotes pIC50 48 hours / Trypomastigotes pIC50 72 hours: pIC50 = -log10 IC50 in molar units; for Trypomastigotes pIC50 72 hours: 72 hours incubation; for 48 pIC50 / 72 pIC50: trypomastigote assay; for 48 pIC50: 48 h; for 72 pIC50: 72 h. The essentials: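 Tulahuen trypomastigotes from infected LLC-MK2 culture supernatants (days 5–8) plated at 5 × 10^4 per well in DMEM/2% FBS with compound at 5 μM single-shot final or in dose response. Viability by CellTiter-Glo ATP luminescence after 10 min at room temperature, normalised to no-cell (100%) and DMSO (0%) controls.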
(Cellular ATP, detected with luciferase, serves as a proxy for viable cell number.)

For series [2], the system named is T. cruzi intracellular amastigotes in H9c2 cells. As to the kind of experiment: Rate-of-Kill (RoK) high-content imaging assay, amastigotes per cell (AM/CELL) and curve descriptors. Conditions: maximum percentage of parasite burden reduction reached by any concentration, 24 hours. The format is cell-based, Trypanosoma cruzi. As to the method:
(§1) For this high-content intracellular imaging assay, H9c2 cells were seeded in 225 cm^2 T- FLASK in DMEM with 10% FBS for 4 h to allow attachment. T. cruzi trypomastigotes, collected at days 5 to 8 after infection from LLC-MK2 parasite infected cultures, were allowed to swim out for 4 h at 37°C from a centrifuged pellet (1,600 x g / 10 min). Trypomastigotes were then collected and counted in a CASY Cell Counter using the 60 μm capillary. Trypomastigotes, in supplemented DMEM, were added to H9c2 cultures in a multiplicity of infection (MOI) of 8 and incubated for 18 h. Cells were washed once with PBS before incubation of the infected H9c2 monolayer with trypsin (Life-Technologies) to detach cells from the flask. Cells were counted in a CASY Cell Counter, using the 150 μm capillary, and their density set at 5 x 10^4 cells/mL in supplemented DMEM. Infected H9c2 were dispensed into 384-well plates at 50 μL per well using a Multidrop Combi dispenser. Control wells used to determine a 100% parasitic growth (full 6th column of each plate) were left untreated, whereas not infected cells were added in the control wells used as 0% parasite growth (or 100% parasite growth inhibition; full 18th column of each plate). The four plates corresponding to each RoK assay were predispensed for the same mother plate. […] Cultures were then fixed and stained with 50 μL per well of a PBS solution containing 4% formaldehyde and 2 μM DRAQ5 DNA dye (BioStatus, UK). Then plates were read in a PerkinElmer Opera Phenix using a 20x objective, 3 fields per well. DRAQ5 signal was detected using 640 nm excitation laser and a 690/50 nm emission detection filter. Automated image analysis was performed with a script developed on Acapella High Content Imaging and Analysis Software (PerkinElmer). Two outputs were provided for each sample well: (1) number of host cells nuclei to determine drug-related cytotoxicity (aka H9c2) and (2) number of amastigotes per cell as infection level measurement (aka AM/CELL). Each output is plotted as a time course for each compound at every concentration. This assay was adapted from Alonso-Padilla et al. and Peña et al..
To identify and classify the different compounds, the number of amastigotes per cell (AM/CELL) raw data obtained in rate of kill assay are normalised using the average of C1 (infected cells) at time 4 hours as 0% effect and the average of C2 (non-infected cells) for each time as 100% effect, according to the following Eq 1: %CIDALRESPONSE=100*[Avg_C14h-RawData]/[Avg_C14h-Avg_C2] (1)
(§2) • ME (Maximum Effect) is the maximum percentage of parasite burden reduction reached by any compound concentration. Compounds that decrease the initial parasite load will show a positive value of ME, whereas compounds that allow the progression of infection will render a negative ME value. […] It is calculated for the MCC50 (t50%_MCC50) and for the maximum concentration (t50%_Cmax). […] The value of this parameter is not either interpolated or extrapolated, and it refers to the first experimental time-course point at which a 50% of effect is reached or exceeded. • tlag defines the time elapsed for one particular concentration to reduce parasite burden between two consecutive points at any moment of the time course. It is calculated for the MCC50 (tlag_MCC50) and for the maximum concentration (tlag_Cmax). The value of this parameter is not either interpolated or extrapolated, and it refers to the first experimental time-course point of a positive slope in the normalised plot (i.e. %Cidal_Response). • Cmin_Tox (Minimal CytoToxic Concentration) is the lowest compound concentration that is reducing the number of host mammalian cells below 50% of initial cell density. Cytotoxic compounds may mislead a bona fide antiparasitic action.

Series [3] concerns TcCYP51. Conditions: formerly reported; cited from earlier work.
Series [4] has as its system H9c2 (rat cardiomyocytes). The series can be described thus: RoK assay, number of host cells nuclei (drug-related cytotoxicity, H9c2 output, Cmin_Tox). Conditions: H9c2 host cells. Here is the method: as §1, with “Trypomastigotes, in supplemented DMEM, were added to H9c2 cultures in a multiplicity of infection (MOI) of 8 and incubated for 18 h.” left out
as §2, with “action. Therefore, this descriptor is used to flag this kind of compounds and warn about the genuine meaning of the rest of descriptors.” for “action.”

`CNc1cc(Cn2c(C(=O)c3cc(C)cc(Cl)c3)c(C(C)C)c(=O)[nH]c2=O)ccn1` [TCMDC-143637]: in series [1], the “Trypomastigotes pIC50 48 hours” value is listed as under 4.3 and the “Trypomastigotes pIC50 72 hours” value is given as under 4.3. For the same compound, in series [1] (72 hours, plotted values, censored values given without sign), the “72 pIC50 (trypomastigotes, raw data of Fig 1D)” value is reported as under 4.3. Further, in series [1] (figure 1A), the “48 pIC50” value is on record as under 4.3 and the “72 pIC50” value is given as under 4.3. The “72 pIC50” value in series [1] (figure 1B) was under 4.3. Besides, the “ME 24h (maximum effect at 24 hours, intracellular amastigotes)” value in series [2] is 23.6593%. The “CYP51 pIC50” value in series [3] is recorded as 7.5.
In the case of `Cc1ccc(S(=O)(=O)Nc2ccc(CN3CCN(C(=O)c4cccc(C#N)c4)CC3)cc2)cc1.O=C(O)C(F)(F)F` [TCMDC-143497], in series [1], the “Trypomastigotes pIC50 48 hours” value is under 4.3 and the “Trypomastigotes pIC50 72 hours” value came out at 4.9. Besides, the “Cmin_Tox” value in series [4] was over 50 µM. In addition, the “CYP51 pIC50” value in series [3] is given as under 4.
Consider `COc1ccc2nccc([C@H](O)CN3CC[C@H](NC(=O)c4ccc(Br)cc4)[C@@H](O)C3)c2n1` [TCMDC-143527], for which, in series [1], the “Trypomastigotes pIC50 48 hours” value is on record as under 4.3 and the “Trypomastigotes pIC50 72 hours” value was under 4.3. In series [1] (figure 1A), the “48 pIC50” value is under 4.3 and the “72 pIC50” value was under 4.3. Moreover, the “72 pIC50” value in series [1] (figure 1B) is given as under 4.3. For the same compound, the “CYP51 pIC50” value in series [3] is 5.2.
Consider `COc1ccc([N+](=O)[O-])cc1NC(=O)Nc1cccc(Cl)c1` [TCMDC-143528], for which, in series [1], the “Trypomastigotes pIC50 48 hours” value worked out at 5.6 and the “Trypomastigotes pIC50 72 hours” value is under 4.3. The “CYP51 pIC50” value in series [3] is on record as under 4.
On to `CC1(C)CCC(=Cc2ccc(Cl)cc2)CC1(O)Cn1ccnc1` (stereo not drawn) [TCMDC-125222], for which, in series [1], the “Trypomastigotes pIC50 48 hours” value came to 5.1 and the “Trypomastigotes pIC50 72 hours” value is reported as 4.8. Moreover, the “CYP51 pIC50” value in series [3] is given as 7.3.
`CN(C)c1ccc(-c2cc3nccnc3c(OC[C@H]3CCCNC3)n2)cn1.Cl` [TCMDC-143408]: in series [1], the “Trypomastigotes pIC50 48 hours” value stood at 4.5 and the “Trypomastigotes pIC50 72 hours” value was 5.2. Moreover, the “CYP51 pIC50” value in series [3] was under 4.
As for `CC(C(=O)Nc1ccc(Br)cc1)N1CCN(c2ccc([N+](=O)[O-])cc2)CC1` (stereo not drawn) [TCMDC-143545], in series [1], the “Trypomastigotes pIC50 48 hours” value is given as under 4.3 and the “Trypomastigotes pIC50 72 hours” value is on record as under 4.3. In series [1] (figure 1A), the “48 pIC50” value was under 4.3 and the “72 pIC50” value is under 4.3. Moreover, the “72 pIC50” value in series [1] (figure 1B) is recorded as under 4.3. In addition, the “CYP51 pIC50” value in series [3] was 4.4.
Consider `Cc1c([N+](=O)[O-])c(C(=O)Nc2sc3c(c2C#N)CCC(C)C3)nn1C` (stereo not drawn) [TCMDC-143155], for which, in series [1], the “Trypomastigotes pIC50 48 hours” value is listed as 5.3 and the “Trypomastigotes pIC50 72 hours” value is given as 5.3. In addition, in series [1] (figure 1A), the “48 pIC50” value turned out to be 5.3 and the “72 pIC50” value stood at 5.3. The “72 pIC50” value in series [1] (figure 1B) was found to be 5.3. Also, in series [3], the “CYP51 pIC50” value was under 4.
On to `CNc1cncc(C2CCCN2C(=O)Cc2ccc3ccccc3c2)n1` (stereo not drawn) [TCMDC-143465], for which, in series [1], the “Trypomastigotes pIC50 48 hours” value is recorded as under 4.3 and the “Trypomastigotes pIC50 72 hours” value is under 4.3. For the same compound, in series [1] (figure 1A), the “48 pIC50” value is listed as under 4.3 and the “72 pIC50” value is recorded as under 4.3. In series [1] (figure 1B), the “72 pIC50” value is under 4.3. Further, in series [3], the “CYP51 pIC50” value is 7.
Take `Cc1ccc2nc(N(Cc3cccnc3)C(=O)CCc3ccccc3)sc2c1` [TCMDC-143553]: in series [1], the “Trypomastigotes pIC50 48 hours” value is listed as 4.7 and the “Trypomastigotes pIC50 72 hours” value is under 4.3. Besides, the “CYP51 pIC50” value in series [3] is listed as 7.2.
Turning to `CS(=O)(=O)O.Cc1cc(Br)cc(C(=O)c2c(C(C)C)c(=O)[nH]c(=O)n2Cc2ccnc(N)c2)c1` [TCMDC-143626], in series [1], the “Trypomastigotes pIC50 48 hours” value is on record as under 4.3 and the “Trypomastigotes pIC50 72 hours” value was under 4.3. For the same compound, in series [1] (figure 1A), the “48 pIC50” value is recorded as under 4.3 and the “72 pIC50” value was under 4.3. For the same compound, the “72 pIC50” value in series [1] (figure 1B) is recorded as under 4.3. Besides, the “CYP51 pIC50” value in series [3] is on record as 7.8.
In the case of `CC(Cn1ccnc1)NC(=O)C=Cc1ccc(Cl)cc1` (stereo not drawn) [TCMDC-143423], in series [1], the “Trypomastigotes pIC50 48 hours” value is listed as under 4.3 and the “Trypomastigotes pIC50 72 hours” value is reported as under 4.3. Further, in series [1] (figure 1A), the “48 pIC50” value is reported as under 4.3 and the “72 pIC50” value is listed as under 4.3. The “72 pIC50” value in series [1] (figure 1B) is on record as under 4.3. The “CYP51 pIC50” value in series [3] was 6.8.

These data come from paper PMC8318231, “Rate-of-Kill (RoK) assays to triage large compound sets for Chagas disease drug discovery: Application to GSK Chagas Box” (PLoS Neglected Tropical Diseases, 2021).
